# Results: patent US10174096B2, “Feline bitter taste receptors and methods” (Applied Food Biotechnology, Inc., priority 2013, dated 2019)
# What was measured:
# Assay type in all cases: cell-based, feline
# fTAS2R38 [1] = assay: Fluo-4AM calcium assay, stable G[alpha]16-gustducin 44/TAS2R38 cell line
# From the text: Fluo-4AM is a fluorescent indicator of intracellular calcium dynamics (change in concentration) and allows monitoring changes in the calcium concentration, particularly an increase in response to receptor activation occurring after agonist exposure.
# fTAS2R38 [2] = assay: Fluo-4AM calcium assay, cells transiently expressing fTAS2R38
# Description: Cell lines that transiently express a desired TAS2R disclosed herein were generated by transfecting the appropriate expression vector, e.g., pcDNA3.1D-FLAGV5His-TAS2R38, constructed as described above in Ex. 2A into cells of a eukaryotic cell line (Life Technologies, Cat# R700-07).
# (§1) On day 0, 60,000 cells per well were plated on poly lysine coated, black 96 well plates with clear bottoms (Costar). The following day the cells were transfected with 150 ng TAS2R38 expression vector, e.g., pcDNA3.1D-FLAGV5His (Invitrogen) along with 45 ng of Ga16 chimera containing the last 44 amino acids of rat gustducin (Gα16gust44) with 0.5 ul Lipofectamine 2000 (Invitrogen) per well. Cells were then incubated 22-44 hours at 37° C. 5% CO2.
# The expression of fTAS2R38 was evaluated by testing for the presence of a functional response to a known hTAS2R38 ligand (e.g., PTC), determined via automated calcium imaging using a Fluo-4AM (Life Technologies Corporation) Calcium Assay. Fluo-4AM is a fluorescent indicator of intracellular calcium dynamics (change in concentration) and allows monitoring changes in the calcium concentration, particularly an increase in response to receptor activation occurring after agonist exposure.
# (§2) Testing for a functional response of fTAS2R38 to the known hTAS2R38 ligands, PTC and PROP, and of fTAS2R43 to the known hTAS2R43 ligands, aloin, denatonium and saccharine), was determined via automated calcium imaging using the Fluo-4AM (Life Technologies Corporation) Calcium Assay.
# fTAS2R43 = assay: Fluo-4AM calcium assay, cells transiently expressing fTAS2R43
# Description: as §1
# Generation of cell lines transiently expressing the other fTAS2Rs disclosed herein was analogous.
# as §2
smiles,measurement,setting,value
"CCCc1cc(=O)[nH]c(=S)[nH]1 [PROP, 6-n-propylthiouracil]",stimulation of stable fTAS2R38 cell line,fTAS2R38 [1]; 30 μm PROP,not stimulated
same,stimulation of fTAS2R38,"fTAS2R38 [2]; 30 μM PROP, transiently transfected cells",not stimulated
"NC(=S)Nc1ccccc1 [PTC, phenylthiocarbamide]",stimulation over baseline,fTAS2R38 [1]; 100 μM PTC,90%
same,activation over baseline,"fTAS2R38 [2]; 100 μM PTC, transiently transfected cells",81%
O=C1c2c(O)cccc2C([C@@H]2O[C@H](CO)[C@@H](O)[C@H](O)[C@H]2O)c2cc(CO)cc(O)c21 (stereo partly shown) [aloin],activation over baseline,"fTAS2R43; 300 μM aloin, transiently transfected cells",45%
CC[N+](CC)(CC(=O)Nc1c(C)cccc1C)Cc1ccccc1 [denatonium],activation over baseline,"fTAS2R43; 1 mM denatonium, transiently transfected cells",17%
"CCCN(CCC)S(=O)(=O)c1ccc(C(=O)O)cc1 [probenecid, p-(dipropylsulfamoyl)benzoic acid]",inhibition of the response to aloin,fTAS2R43; 1 mM probenecid,inhibited
same,inhibition of the response to denatonium,fTAS2R43; 1 mM probenecid,inhibited
same,inhibition of the response to PTC,fTAS2R38 [2]; 1 mM probenecid,inhibited
O=C1NS(=O)(=O)c2ccccc21 [saccharin],stimulation of fTAS2R43,"fTAS2R43; 6.7 mM saccharin, transiently transfected cells",not stimulated
